tested on: mice; assay: Marble Burying Test (model for OCSD including OCD); type: in vivo; conditions: dose equieffective to 3 mg/kg of the hydrochloride (92% inhibition)
Procedure: A typical model for OCSD including OCD is the Marble Burying Test according to Y. Ichimaru, T. Egawa, A. Sawa, Jpn. J. Pharmacol. 1995, 68: 65-70.
The apparatus consists of an open cubic box with 25 clean glass marbles evenly spaced on sawdust. Individual mice are placed in the test box, and the number of glass marbles left uncovered after 20 minutes are counted. 1-[4-(5-cyanoindol-3-yl)butyl]-4-(2-carbamoyl-benzofuran-5-yl)-piperazine or one of its physiologically acceptable salts, in particular 1-[4-(5-cyanoindol-3-yl)butyl]-4-(2-carbamoyl-benzofuran-5-yl)-piperazine hydrochloride, following subcutaneous application inhibits mable burying in mice dose-dependently. For example, a dose of 3 mg/kg of 1-[4-(5-cyanoindol-3-yl)butyl]-4-(2-carbamoyl-benzofuran-5-yl)-piperazine hydrochloride nearly completely (92%) inhibits marble burying; equieffective doses of conventional serotonin reuptake inhibitors are e.g. 20 mg/kg for fluvoxamine or 17 mg/kg for fluoxetine and an equieffective dose of the 5-HT1A agonist ipsapirone is 10 mg/kg.

SMILES | equieffective dose for inhibition of marble burying [mg/kg]
CNCCC(Oc1ccc(C(F)(F)F)cc1)c1ccccc1 (stereo not drawn) [fluoxetine] | 17
COCCCC/C(=N\OCCN)c1ccc(C(F)(F)F)cc1 [fluvoxamine] | 20
O=C1c2ccccc2S(=O)(=O)N1CCCCN1CCN(c2ncccn2)CC1 [ipsapirone] | 10

Reference: patent US7642261B2, “Use of 1-[4-(5-cyanoindol-3-yl)butyl]-4-(2-carbamoyl-benzofuran-5-yl)-piperazine and its physiologically acceptable salts” (Merck Patent GmbH, priority 2002, dated 2010)
